The values that follow come from patent publication US10221144B2, “Antibacterial compounds having broad spectrum of activity” (priority 2014, dated 2019).

Holding throughout (assay type): biochemical
In assay [1] the target is T1, S. aureus Topoisomerase IV (Staphylococcus aureus, UniProt P0C1S7+P0C1U9).
T1 construct: purchased Inspiralis, UK
The assay is described as follows: Topoisomerase IV decatenation assay (S. aureus). The following applies: for inhibition at 100 µM: conc. 100 μM. How it is done:
(§1) The above compounds were tested for the inhibition of the enzyme DNA gyrase in a gyrase supercoiling assay and for the inhibition of the enzyme topoisomerase IV in a decatenation assay, in both Gram positive and Gram negative bacteria, according to the following methods.
(§2) Both the assays were carried out according to a set-up method modified from the article to Blanche F, et al. “Differential Behaviors of Staphylococcus aureus and Escherichia coli Type II DNA Topoisomerases”, Antimicrob. Agents Chemother., 1996, Vol. 40, No. 12 p. 2714-2720.
(§3) The compounds were screened at single concentration (200, 100 or 50 μM), in duplicate.
(§4) S. aureus and E. coli Topoisomerase IV decatenation kits (Inspiralis, UK) were used. A master mix with a total volume sufficient for the number of reactions to perform was prepared with the following reagents: 5× assay buffer (50 mM HEPES-KOH (pH 7.6), 100 mM potassium glutamate, 10 mM magnesium acetate, 10 mM DTT, 1 mM ATP, 50 μg/ml albumin), kDNA substrate (200 ng/reaction), RNase-DNase free water. Aliquots of this mix were dispensed in each tube, then 10× compound stock solutions or vehicle control (DMSO), were added in each reaction tube.
(§5) Reaction was started with Topoisomerase IV enzyme (0.5 U/reaction) addition.
(§6) A sample added with an equal volume of dilution buffer was used as negative control (without enzyme).
(§7) The reaction tubes were gentle vortexed and incubated 30 minutes at 37° C. Each reaction was stopped by adding 30 μl of Stop Buffer and 30 μl of chloroform/isoamyl alcohol (24/1), briefly vortexed for 5-10 seconds and centrifuged at 20000×g for 2 minutes. Samples taken from the upper phase were loaded into 1% agarose gel and subjected to electrophoresis for 1 hour at 80V constant voltage in TAE (40 mM Tris-acetate, 2 mM EDTA).
(§8) Data acquisition and analysis. Due to the high molecular mass, kDNA could not enter an agarose gel under normal electrophoresis conditions, but remained in the wells. In the presence of Topo IV topoisomerase mini-circles (2.5 Kb) were released from kDNA by decatenation and were quickly and easily resolved in the gel at relatively high voltages.
(§9) Bands were visualized by ethidium bromide staining (dil 1:20000) for 30 minutes followed by destaining in distilled water for 10 minutes.
(§10) For single concentration screening assay, in order to evaluate the compounds activity on the enzymes, the bands of decatenated DNAs in the gel were photographed by a digital imaging system ImageQuant LAS 4000 (GE Healthcare) according to manufacturer's instructions.
(§11) The fluorescent intensity of each band was analyzed by ImageQuant TL software and it was expressed as volume (volume of the uncalibrated quantity of material in the image feature after subtraction of the background intensity by using rolling ball method).
(§12) Each band intensity was compared, as percentage, to vehicle sample band intensity, which served as positive control, on the same gel.
(§13) Inhibitory activity was expressed as percent of inhibition versus the positive control.
(§14) The supercoiled or decatenated DNA bands obtained as described in Example 1 were analysed as follows.
(§15) Bands were analyzed by gel documentation equipment (Syngene, Cambridge, UK) and quantitated using Syngene Gene Tools software. Raw gel data (fluorescent band volumes) collected from Syngene, GeneTools gel analysis software were converted to a percentage of the 100% control (the fully supercoiled or decatenated DNA band). […] The IC50 data were calculated by using the global curve fit non-linear regression tool by selecting the Single, 2 Parameter fit function from the Exponential Decay equation category.

Assay [2] addresses T2, E. coli DNA gyrase (Escherichia coli, UniProt P0AES4+P0AES6).
T2 construct: purchased Inspiralis, UK
The assay is described as follows: DNA gyrase supercoiling assay (E. coli). The following applies: for inhibition at 100 µM: conc. 100 μM; for inhibition at 50 µM: conc. 50 μM. The protocol: as §1, §2, §3
(§16) Reagents from S. aureus and E. coli Gyrase Supercoiling Assay kits (Inspiralis, UK) were used. A master mix with a total volume sufficient for the number of reactions to perform was prepared with the following reagents: 5× assay buffer, relaxed pBR322 substrate (0.5 μg/reaction), RNase-DNase free water. Aliquotes of this mix were dispensed in each tube, then 10× compound stock solutions or vehicle control (DMSO), were added to each reaction tube.
(§17) Reaction was started with E. Coli (2 U/reaction) or S. aureus (1 U/reaction) gyrase enzyme addition.
as §6
(§18) The reaction tubes were gentle vortexed and incubated 30 minutes at 37° C. Each reaction was stopped by adding 30 μl of Stop Buffer and 30 μl chloroform/isoamyl alcohol (24/1), briefly vortexed for 5-10 seconds and centrifuged at 20000×g for 2 minutes. Samples were loaded onto 1% agarose gel and subjected to electrophoresis for 1 hour at 80V constant voltage in TAE (40 mM Tris-acetate, 2 mM EDTA).
(§19) Data acquisition and analysis. Treatment of relaxed pBR322 with DNA gyrase converted the relaxed topoisomers (DNAs of different linking number) to the supercoiled form of the plasmid, which migrates faster on an agarose gel. An upper band might also be visible, which consists of open-circular (nicked) DNA which is present in the relaxed substrate but co-migrates with some of the relaxed topoisomers.
(§20) Bands were visualized by ethidium bromide staining (dilution 1:20000) for 30 minutes followed by destaining in distilled water for 10 minutes.
(§21) In order to evaluate the compounds activity on the enzyme, the bands of supercoiled DNAs in the gel were photographed by a digital imaging system ImageQuant LAS 4000 (GE Healthcare) according to manufacturer's instructions.
as §11, §12, §13, §14, §15

Assay [3] deals with T3, E. coli Topoisomerase IV (Escherichia coli, UniProt P0AFI2+P20083).
T3 construct: purchased Inspiralis, UK
The assay is described as follows: Topoisomerase IV decatenation assay (E. coli). The following applies: for inhibition at 100 µM: conc. 100 μM; for inhibition at 50 µM: conc. 50 μM. How it is done: as §1, §2, §3, §4, §5, §6, §7, §8, §9, §10, §11, §12, §13, §14, §15

Assay [4] has as its target T4, S. aureus DNA gyrase (Staphylococcus aureus, UniProt P0A0K8+P20831).
T4 construct: purchased Inspiralis, UK
In words: DNA gyrase supercoiling assay (S. aureus). The following applies: for inhibition at 100 µM: conc. 100 μM; for inhibition at 50 µM: conc. 50 μM. How it is done: as §1, §2, §3, §16, §17, §6, §18, §19, §20, §21, §11, §12, §13, §14, §15

[5] abbreviates: S. aureus, n/a = not active, read-out: % inhibition Topo IV.
Setting [6] is: E. coli, n/a = not active, read-out: % inhibition Topo IV.
Where [7] appears, read: S. aureus, conc. 50 μM, n/a = not active, read-out: % inhibition Topo IV.
The mark [8] stands for this setting: S. aureus, concentration-response curve, eight half-log concentrations 0.1 to 300 μM, read-out: IC50 Topo IV.

pIC50: −log10 of the molar value. Structures can show the parent of a compound that is named as a salt. Where two headings read alike, the source gives them in different places.

T4 sequence (P0A0K8 whole entry): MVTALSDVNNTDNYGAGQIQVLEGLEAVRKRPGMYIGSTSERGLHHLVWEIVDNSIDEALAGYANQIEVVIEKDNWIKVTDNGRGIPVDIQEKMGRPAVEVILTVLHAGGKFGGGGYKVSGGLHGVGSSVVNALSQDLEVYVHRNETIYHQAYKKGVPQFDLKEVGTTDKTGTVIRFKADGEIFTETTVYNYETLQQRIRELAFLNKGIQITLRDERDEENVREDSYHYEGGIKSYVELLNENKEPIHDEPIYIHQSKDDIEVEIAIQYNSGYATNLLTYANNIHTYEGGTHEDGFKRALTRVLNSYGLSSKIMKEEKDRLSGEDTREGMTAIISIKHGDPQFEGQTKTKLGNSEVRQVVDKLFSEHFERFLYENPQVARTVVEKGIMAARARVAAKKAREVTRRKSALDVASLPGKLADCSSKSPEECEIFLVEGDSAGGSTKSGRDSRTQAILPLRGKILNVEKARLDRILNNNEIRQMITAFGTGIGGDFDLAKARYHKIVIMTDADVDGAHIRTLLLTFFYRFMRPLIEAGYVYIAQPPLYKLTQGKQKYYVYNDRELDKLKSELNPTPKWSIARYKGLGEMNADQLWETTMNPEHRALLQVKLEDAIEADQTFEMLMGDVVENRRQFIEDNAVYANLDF
T4 sequence (P20831 whole entry): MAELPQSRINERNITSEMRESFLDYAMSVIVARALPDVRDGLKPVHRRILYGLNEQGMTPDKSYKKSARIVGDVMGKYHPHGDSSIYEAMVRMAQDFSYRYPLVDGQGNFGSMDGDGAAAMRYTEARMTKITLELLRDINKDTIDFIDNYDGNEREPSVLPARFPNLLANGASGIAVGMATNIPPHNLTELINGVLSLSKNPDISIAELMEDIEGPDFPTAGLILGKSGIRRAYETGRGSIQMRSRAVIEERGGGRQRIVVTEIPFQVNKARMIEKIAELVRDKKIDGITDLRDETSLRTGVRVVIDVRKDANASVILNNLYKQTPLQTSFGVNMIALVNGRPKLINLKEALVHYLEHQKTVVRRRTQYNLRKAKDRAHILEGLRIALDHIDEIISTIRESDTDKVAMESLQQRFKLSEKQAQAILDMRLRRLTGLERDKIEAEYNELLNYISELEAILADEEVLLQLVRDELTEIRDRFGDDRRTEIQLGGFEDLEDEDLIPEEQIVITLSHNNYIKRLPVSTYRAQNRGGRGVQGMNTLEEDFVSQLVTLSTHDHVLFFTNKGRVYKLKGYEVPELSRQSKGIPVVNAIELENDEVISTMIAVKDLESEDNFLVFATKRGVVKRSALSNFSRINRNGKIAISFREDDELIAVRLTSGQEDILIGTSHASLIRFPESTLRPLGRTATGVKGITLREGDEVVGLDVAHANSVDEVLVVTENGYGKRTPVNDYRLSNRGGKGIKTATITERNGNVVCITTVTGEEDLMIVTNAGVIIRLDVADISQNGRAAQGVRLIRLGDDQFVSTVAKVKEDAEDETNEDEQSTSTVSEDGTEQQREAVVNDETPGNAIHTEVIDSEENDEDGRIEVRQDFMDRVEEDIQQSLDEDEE
T2 sequence (P0AES4 whole entry, one chain of several): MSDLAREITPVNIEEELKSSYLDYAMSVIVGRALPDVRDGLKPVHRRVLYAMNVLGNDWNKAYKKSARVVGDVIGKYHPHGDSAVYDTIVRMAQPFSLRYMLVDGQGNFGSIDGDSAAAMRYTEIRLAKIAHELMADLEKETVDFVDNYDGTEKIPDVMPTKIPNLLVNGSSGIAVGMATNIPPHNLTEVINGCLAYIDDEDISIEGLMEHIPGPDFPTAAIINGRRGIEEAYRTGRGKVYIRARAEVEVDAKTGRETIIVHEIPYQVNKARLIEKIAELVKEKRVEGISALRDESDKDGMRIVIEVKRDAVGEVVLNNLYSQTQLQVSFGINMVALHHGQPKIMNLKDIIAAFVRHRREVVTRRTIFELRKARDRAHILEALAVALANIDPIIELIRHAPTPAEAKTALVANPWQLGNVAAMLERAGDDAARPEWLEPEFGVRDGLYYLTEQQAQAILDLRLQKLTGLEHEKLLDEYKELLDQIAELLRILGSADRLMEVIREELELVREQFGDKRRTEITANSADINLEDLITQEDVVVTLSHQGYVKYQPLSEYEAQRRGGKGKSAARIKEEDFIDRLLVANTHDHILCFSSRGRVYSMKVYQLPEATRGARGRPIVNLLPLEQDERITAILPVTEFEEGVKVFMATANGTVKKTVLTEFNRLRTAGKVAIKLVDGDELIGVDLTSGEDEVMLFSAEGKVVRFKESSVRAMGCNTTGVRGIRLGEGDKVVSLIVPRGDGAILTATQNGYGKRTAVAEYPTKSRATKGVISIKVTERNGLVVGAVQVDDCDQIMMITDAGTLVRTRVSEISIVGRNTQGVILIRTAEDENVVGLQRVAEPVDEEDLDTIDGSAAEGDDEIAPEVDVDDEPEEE
T1 sequence (P0C1S7 whole entry): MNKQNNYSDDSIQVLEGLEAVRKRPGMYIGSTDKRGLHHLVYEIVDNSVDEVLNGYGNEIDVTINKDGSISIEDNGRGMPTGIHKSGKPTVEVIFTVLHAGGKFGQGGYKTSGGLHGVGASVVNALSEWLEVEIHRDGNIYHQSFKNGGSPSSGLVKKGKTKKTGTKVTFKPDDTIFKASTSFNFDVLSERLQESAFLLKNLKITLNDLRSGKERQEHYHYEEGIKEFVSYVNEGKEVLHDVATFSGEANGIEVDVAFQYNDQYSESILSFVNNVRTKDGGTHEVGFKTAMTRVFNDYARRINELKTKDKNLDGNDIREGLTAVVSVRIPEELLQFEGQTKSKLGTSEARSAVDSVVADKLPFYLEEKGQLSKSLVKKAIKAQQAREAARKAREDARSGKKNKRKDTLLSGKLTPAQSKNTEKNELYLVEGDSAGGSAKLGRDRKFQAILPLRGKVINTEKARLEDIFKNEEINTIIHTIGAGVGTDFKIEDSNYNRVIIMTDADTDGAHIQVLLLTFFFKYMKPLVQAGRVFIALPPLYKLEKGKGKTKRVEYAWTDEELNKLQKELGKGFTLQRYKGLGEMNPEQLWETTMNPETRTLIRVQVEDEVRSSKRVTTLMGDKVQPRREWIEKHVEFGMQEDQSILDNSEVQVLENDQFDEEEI
T1 sequence (P0C1U9 whole entry): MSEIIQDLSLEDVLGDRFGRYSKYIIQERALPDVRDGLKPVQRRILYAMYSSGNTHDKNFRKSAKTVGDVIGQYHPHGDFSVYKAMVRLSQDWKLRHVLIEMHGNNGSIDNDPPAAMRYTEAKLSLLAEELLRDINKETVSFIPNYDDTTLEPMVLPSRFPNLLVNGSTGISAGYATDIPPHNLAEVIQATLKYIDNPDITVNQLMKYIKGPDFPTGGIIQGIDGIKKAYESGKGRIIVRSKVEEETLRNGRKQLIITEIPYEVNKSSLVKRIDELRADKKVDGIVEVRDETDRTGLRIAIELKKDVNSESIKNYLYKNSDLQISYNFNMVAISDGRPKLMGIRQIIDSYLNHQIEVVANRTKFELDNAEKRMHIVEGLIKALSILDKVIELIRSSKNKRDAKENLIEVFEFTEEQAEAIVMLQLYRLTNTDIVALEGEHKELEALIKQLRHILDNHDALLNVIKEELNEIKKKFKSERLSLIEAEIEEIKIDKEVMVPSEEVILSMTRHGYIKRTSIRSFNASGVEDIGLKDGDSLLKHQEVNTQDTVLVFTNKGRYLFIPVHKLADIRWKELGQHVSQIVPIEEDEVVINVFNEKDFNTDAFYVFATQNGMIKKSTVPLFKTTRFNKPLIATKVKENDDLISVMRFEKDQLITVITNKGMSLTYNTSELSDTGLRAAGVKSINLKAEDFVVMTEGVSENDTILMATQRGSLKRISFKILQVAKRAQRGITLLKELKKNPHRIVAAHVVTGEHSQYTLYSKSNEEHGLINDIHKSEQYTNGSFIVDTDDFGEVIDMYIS

Take `O=c1cc(NCC(O)CN2CCN(c3nccc4ccccc34)CC2)c2ccccc2o1` (racemic) [Compound 59, 4-({2-hydroxy-3-[4-(isoquinolin-1-yl)piperazin-1-yl]propyl}amino)-2H-chromen-2-one]: the pIC50 in assay [1] was 4.73; in assay [2], 5.92; in assay [3] it was 4.79; in assay [4] it was 5.36. The inhibition at 100 µM in assay [1] (setting [5]) was 77%; in assay [2] (E. coli, n/a = not active), 81%; in assay [3] (setting [6]), 100%; in assay [4] (S. aureus, n/a = not active) it was 90%.

As to `CCOC(=O)C1CN(c2nccc3ccc(F)cc23)CCC1NCc1cc2c(=O)oc3ccccc3c2[nH]1` (racemic) [Compound 184, ethyl 1-(7-fluoroisoquinolin-1-yl)-4-{[(4-oxo-1,4-dihydro[1]benzopyrano[4,3-b]pyrrol-2-yl)methyl]amino}piperidine-3-carboxylate], the inhibition at 50 µM in assay [1] (read-out: % inhibition Topo IV) is 69%; in assay [2] (E. coli, n/a = not active), 68%; in assay [3] (setting [6]), 58%; in assay [4] (S. aureus, n/a = not active), 83%.

In the case of `O=c1cc(NCCCN2CCN(c3nccc4ccccc34)CC2)c2ccccc2o1` [Compound 44, 4-({3-[4-(isoquinolin-1-yl)piperazin-1-yl]propyl}amino)-2H-chromen-2-one], the pIC50 in assay [1] is 4.05; in assay [2], 6.30; in assay [3] it was 5.00; in assay [4], 4.85. For the same compound, the inhibition at 200 µM in assay [1] (S. aureus, conc. 200 μM, n/a = not active, read-out: % inhibition Topo IV) is 65%; in assay [2] (E. coli, conc. 200 μM, n/a = not active), 100%; in assay [3] (E. coli, conc. 200 μM, n/a = not active, read-out: % inhibition Topo IV), 100%; in assay [4] (S. aureus, conc. 200 μM, n/a = not active) it was 100%.

In the case of `O=c1cc(NCCCN2CCN(c3nccc4ccc(F)cc34)CC2)c2ccccc2o1` [Compound 67, 4-({3-[4-(7-fluoroisoquinolin-1-yl)piperazin-1-yl]propyl}amino)chromen-2-one], the pIC50 was 4.93 in assay [1], 6.10 in assay [2], 5.77 in assay [3] and 5.55 in assay [4]. Besides, the inhibition at 100 µM in assay [1] (setting [5]) is 100%; in assay [2] (E. coli, n/a = not active) it was 89%; in assay [3] (setting [6]), 100%; in assay [4] (S. aureus, n/a = not active) it was 97%.

Take `O=c1cc(NCCNC2CCN(c3nccc4ccc(F)cc34)CC2)c2cc(F)ccc2o1` [Compound 131, 6-fluoro-4-[(2-{[1-(7-fluoroisoquinolin-1-yl)piperidin-4-yl]amino}ethyl)amino]-2H-chromen-2-one]: the inhibition at 50 µM in assay [1] (setting [7]) stood at 78%; in assay [2] (E. coli, n/a = not active), 100%; in assay [3] (setting [6]), 100%; in assay [4] (S. aureus, n/a = not active) it was 81%.

`O=c1nc(NCC(O)CN2CCN(c3nccc4ccc(F)cc34)CC2)c2cc(F)ccc2o1` (stereo not drawn) [Compound 148, 6-fluoro-4-({3-[4-(7-fluoroisoquinolin-1-yl)piperazin-1-yl]-2-hydroxypropyl}amino)-2H-1,3-benzoxazin-2-one]: the inhibition at 50 µM in assay [1] (setting [7]) was 100%; in assay [2] (E. coli, n/a = not active), 96%; in assay [3] (setting [6]) it was 100%; in assay [4] (S. aureus, n/a = not active), 100%. For the same compound, the pIC50 was 7.30 in assay [1] (setting [8]), 6.38 in assay [2], 6.92 in assay [3] and 7.62 in assay [4].

Turning to `O=c1nc(NCC(O)CN2CCN(c3nc(F)cc4ccc(F)cc34)CC2)c2cc(F)ccc2o1` (stereo not drawn) [Compound 149, 4-({3-[4-(3,7-difluoroisoquinolin-1-yl)piperazin-1-yl]-2-hydroxypropyl}amino)-6-fluoro-2H-1,3-benzoxazin-2-one], the inhibition at 50 µM in assay [1] (setting [7]) worked out at 100%; in assay [2] (E. coli, n/a = not active), 90%; in assay [3] (setting [6]), 90%; in assay [4] (S. aureus, n/a = not active), 100%. For the same compound, the pIC50 in assay [1] (setting [8]) is 7.40; in assay [2] it was 7.00; in assay [3] it was 6.85; in assay [4], 7.74.

Turning to `Fc1ccc2ccnc(N3CCN(CCNCc4cc5c(cn4)OCCC5)CC3)c2c1` [Compound 150, N-[(3,4-dihydro-2H-pyrano[2,3-c]pyridin-6-yl)methyl]-2-[4-(7-fluoroisoquinolin-1-yl)piperazin-1-yl]ethan-1-amine], the negative logarithm of the IC50 (pIC50) is 5.23 in assay [1], 4.77 in assay [2], 5.37 in assay [3] and 5.99 in assay [4]. Further, the inhibition at 50 µM in assay [1] (setting [7]) worked out at 50%; in assay [2] (E. coli, n/a = not active) it was 50%; in assay [3] (setting [6]) it was 50%; in assay [4] (S. aureus, n/a = not active), 100%.

As for `O=c1oc2ccccc2c2[nH]c(C(O)CN3CCN(c4nccc5ccc(F)cc45)CC3)nc12` (stereo not drawn) [Compound 152, 2-{2-[4-(7-fluoroisoquinolin-1-yl)piperazin-1-yl]-1-hydroxyethyl}[1]benzopyrano[3,4-d]imidazol-4(1H)-one hydrochloride], the pIC50 in assay [1] (setting [8]) was 6.28; in assay [2], 6.18; in assay [3], 6.07; in assay [4], 6.51. Also, the inhibition at 50 µM in assay [1] (read-out: % inhibition Topo IV) was 88%; in assay [2] (E. coli, n/a = not active), 88%; in assay [3] (setting [6]) it was 100%; in assay [4] (S. aureus, n/a = not active), 100%.

For the compound `O=c1oc2ccccc2c2[nH]c(CNC3CCN(c4nccc5ccc(F)cc45)CC3)c(C(F)(F)F)c12` [Compound 153, 2-({[1-(7-fluoroisoquinolin-1-yl)piperidin-4-yl]amino}methyl)-3-(trifluoromethyl)[1]benzopyrano[4,3-b]pyrrol-4(1H)-one], the pIC50 is 5.64 in assay [1], 5.85 in assay [2], 5.87 in assay [3] and 6.31 in assay [4]. For the same compound, the inhibition at 50 µM in assay [1] (setting [7]) is 61%; in assay [2] (E. coli, n/a = not active) it was 72%; in assay [3] (setting [6]) it was 50%; in assay [4] (S. aureus, n/a = not active) it was 100%.

Usually pIC50 stands for the IC50 on a negative log10 scale, so that one unit is a factor of ten. One may read the inhibition as how much of the control response was suppressed.
